Common to all, as to assay: NCI anticancer screen, dose series, 48 h
Assay [1] relates to ACHN.
In assay [2] the test system is CCRF-CEM.
In assay [3] the test system is HL-60.
In assay [4] the test system is HOP-62.
Assay [5] has as its system IGROV-1.
The test system of assay [6] is K562.
The test system of assay [7] is KM12.
In assay [8] the test system is MOLT-4.
For assay [9], the system named is NCI-H226.
In assay [10] the test system is NCI-H23.
In assay [11] the test system is NCI-H522.
The subject of assay [12] is OVCAR-8.
Assay [13] deals with RPMI-8226.
Assay [14] relates to SF-539.
Assay [15] concerns SK-MEL-5.
Assay [16] concerns SNB-19.
Assay [17] relates to UO-31.
Assay [18] relates to HCT-116.
Assay [19] relates to OVCAR-4.

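Cells were grown in 96-well plates and exposed to each compound for 48 hours at five concentrations; endpoints were interpolated linearly between bracketing concentrations, or set to the highest concentration if not reached. At the GI50, growth is halved.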 Calls of active or inactive are those of the source. No stated cut-off is given here; in the data, active = GI50 up to about 1.1 µM and inactive = higher. A value given as a limit tells only on which side of the number the result lay.

With `COc1ccc(-c2nc3c(nc2-c2ccc(OC)cc2)C(N)=NS(=O)(=O)N3)cc1`, the GI50 in assay [1], in [2], in [3], in assay [4], in assay [5] and in assay [6] was > 100 µM (inactive) throughout. Moreover, the GI50 in assay [7], in assay [8], in assay [9], in assay [10], in assay [11] and in assay [12] was > 100 µM (inactive) in each case. Moreover, the GI50 in assay [13], in assay [14], in assay [15], in assay [16] and in assay [17] was > 100 µM (inactive) throughout.

Consider `O=C(/C=C/c1ccc(OCCCCCCCCCCOc2ccc(/C=C/C(=O)c3ccc(Cl)cc3)cc2)cc1)c1ccc(Cl)cc1`, for which the GI50 in assay [1], in assay [2], in assay [3], in [4], in assay [5] and in assay [6] was > 100 µM (inactive) in each case. The GI50 in assay [7], in [8], in assay [9], in assay [10], in assay [11] and in assay [12] was > 100 µM (inactive) each time. For the same compound, the GI50 in assay [13], in assay [14], in assay [15], in [16] and in assay [17] was > 100 µM (inactive) each time.

Consider `Cc1ccc(C2(O)CC(c3ccc([N+](=O)[O-])o3)=NN2C(=O)COc2ccc(Cl)cc2)cc1` (stereo not drawn), for which the GI50 in assay [1] is 4.99 µM (inactive); in assay [18], 3.85 µM (inactive); in assay [3], 1.75 µM (inactive); in [4], 12.3 µM (inactive); in assay [5], 11.4 µM (inactive); in [6], 4.07 µM (inactive). In addition, the GI50 was 4.66 µM (inactive) in [7]; 3.26 µM (inactive) in assay [8]; 17.1 µM (inactive) in [9]; 5.2 µM (inactive) in assay [10]; 9.04 µM (inactive) in [11]; 5.98 µM (inactive) in assay [19]. The GI50 is 4.63 µM (inactive) in [12]; 2.24 µM (inactive) in assay [13]; 10.2 µM (inactive) in [14]; 2.32 µM (inactive) in [15]; 6.62 µM (inactive) in assay [16]; 5.5 µM (inactive) in assay [17].

On to `CCC/C(=N\NC(=S)N1CCN(c2ccccn2)CC1)c1ccccn1`, for which the GI50 in assay [1] was 0.0207 µM (active); in [18], 0.00122 µM (active); in assay [3], < 0.001 µM (active); in assay [4], 0.141 µM (active); in assay [5], 0.00234 µM (active); in [6] it was 0.00117 µM (active). The GI50 was 0.0146 µM (active) in assay [7]; 1.06 µM (active) in assay [9]; 0.00881 µM (active) in [10]; 0.0413 µM (active) in assay [11]; 0.191 µM (active) in assay [19]; 0.00314 µM (active) in assay [12]. Also, the GI50 in assay [13] was 0.00115 µM (active); in assay [15], 0.0108 µM (active); in assay [16] it was 0.0142 µM (active); in [17], 0.0702 µM (active).

The record behind these values is ChEMBL document CHEMBL1201862, “PubChem BioAssay data set” (2004).
